Laboratory results reported in the NIST ThermoML archive (doi:10.1016/j.fluid.2016.07.022).
Numbers after ± are expanded uncertainties.

What was measured:
[1] = 101.33 kPa, Liquid; for viscosity: Falling or rolling sphere viscometry; for speed of sound: Frequency=3 MHz, Single path-length method; for mass density: Vibrating tube method
[2] = wn = mass fraction of the nth substance listed; conditions: 298.15 K, 100 kPa, Liquid; for viscosity: Falling or rolling sphere viscometry; for speed of sound: Frequency=3 MHz, Single path-length method; for mass density: Vibrating tube method

CCCC[NH2+]CCO.O=C[O-] [N-(2-hydroxyethyl)butan-1-aminium formate]
[1]
Conditions	mass density [kg/m3]	speed of sound [m/s]	viscosity [mPa·s]
293.15 K	1038.1 ± 2.7	1616.5 ± 3.7	474.4 ± 37
298.15 K	1035.1 ± 2.7	1602.4 ± 3.7	332.8 ± 22
303.15 K	1032.1 ± 2.7	1588.4 ± 3.7	234.2 ± 13
308.15 K	1029.1 ± 2.7	1574.7 ± 3.7	170.2 ± 7.5
313.15 K	1026.1 ± 2.7	1561.4 ± 3.7	128.3 ± 4.6
318.15 K	1023.1 ± 2.7	1548.2 ± 3.7	96.9 ± 3.2
323.15 K	1020.1 ± 2.7	1535.1 ± 3.7	75 ± 2.5
328.15 K	1017 ± 2.7	1522.2 ± 3.7	57.3 ± 2.2
333.15 K	1013.9 ± 2.7	1509.2 ± 3.7	45.7 ± 2.1
338.15 K	1010.9 ± 2.7	1496.4 ± 3.7	36.3 ± 2.1
343.15 K	1007.8 ± 2.7	1483.4 ± 3.7	29.3 ± 2.1

CCC(=O)[O-].CCCC[NH2+]CCO [N-(2-hydroxyethyl)butan-1-aminium propionate]
[1]
Conditions	mass density [kg/m3]	speed of sound [m/s]	viscosity [mPa·s]
293.15 K	1004.9 ± 2.6	1513.8 ± 3.7	675.6 ± 60
298.15 K	1001.4 ± 2.6	1496.1 ± 3.7	502.6 ± 40
303.15 K	997.9 ± 2.6	1478.9 ± 3.7	385.1 ± 27
308.15 K	994.4 ± 2.6	1462.2 ± 3.7	282.1 ± 17
313.15 K	990.8 ± 2.6	1445.9 ± 3.7	212 ± 11
318.15 K	987.3 ± 2.6	1429.7 ± 3.7	155 ± 6.3
323.15 K	983.6 ± 2.6	1413.7 ± 3.7	115.6 ± 4
328.15 K	979.9 ± 2.6	1397.4 ± 3.7	87.6 ± 2.8
333.15 K	976.3 ± 2.6	1381.6 ± 3.7	67.4 ± 2.3
338.15 K	972.5 ± 2.6	1365.8 ± 3.7	52.4 ± 2.2
343.15 K	968.8 ± 2.6	1350.1 ± 3.7	41.6 ± 2.1

CCCCC(=O)[O-].CCCC[NH2+]CCO [N-(2-hydroxyethyl)butan-1-aminium pentanoate]
[1]
Conditions	mass density [kg/m3]	speed of sound [m/s]	viscosity [mPa·s]
293.15 K	970 ± 2.6	1460 ± 3.7	896.3 ± 88
298.15 K	966.5 ± 2.6	1442.3 ± 3.7	684.1 ± 61
303.15 K	963 ± 2.6	1425.1 ± 3.7	505.8 ± 40
308.15 K	959.4 ± 2.6	1408.3 ± 3.7	349.9 ± 24
313.15 K	955.8 ± 2.6	1391.8 ± 3.7	244.1 ± 14
318.15 K	952.2 ± 2.5	1375.7 ± 3.7	177.1 ± 8
323.15 K	948.5 ± 2.5	1359.6 ± 3.7	131.1 ± 4.8
328.15 K	944.8 ± 2.5	1343.8 ± 3.7	98.1 ± 3.2
333.15 K	941.1 ± 2.5	1328 ± 3.7	73.9 ± 2.5
338.15 K	937.4 ± 2.5	1312.2 ± 3.7	57.9 ± 2.2
343.15 K	933.6 ± 2.5	1296.6 ± 3.7	45.4 ± 2.1

CCCC(=O)[O-].CCCC[NH2+]CCO [N-(2-hydroxyethyl)butan-1-aminium butyrate]
[1]
Conditions	mass density [kg/m3]	speed of sound [m/s]	viscosity [mPa·s]
293.15 K	983.7 ± 2.6	1484.6 ± 3.7	748.6 ± 69
298.15 K	980.1 ± 2.6	1466.6 ± 3.7	576.8 ± 48
303.15 K	976.6 ± 2.6	1449 ± 3.7	435.9 ± 32
308.15 K	973 ± 2.6	1431.9 ± 3.7	318.9 ± 20
313.15 K	969.4 ± 2.6	1415.2 ± 3.7	231.6 ± 12
318.15 K	965.7 ± 2.6	1398.7 ± 3.7	158.1 ± 6.6
323.15 K	962 ± 2.6	1382.4 ± 3.7	122.4 ± 4.3
328.15 K	958.3 ± 2.6	1366.2 ± 3.7	92.6 ± 3
333.15 K	954.5 ± 2.6	1350.2 ± 3.7	69.8 ± 2.4
338.15 K	950.7 ± 2.5	1334.1 ± 3.7	55.2 ± 2.2
343.15 K	946.9 ± 2.5	1318.2 ± 3.7	43.1 ± 2.1

CCCC(=O)[O-].CCCC[NH2+]CCO [N-(2-hydroxyethyl)butan-1-aminium butyrate] + O
[2]
Conditions	mass density [kg/m3]	speed of sound [m/s]	viscosity [mPa·s]
w2 = 0.002762	980.15 ± 5.2	1464.6 ± 3.7	197.67 ± 9.7
w2 = 0.004186	981.17 ± 5.2	1466.2 ± 3.7	190.86 ± 9.1
w2 = 0.005795	982.18 ± 5.2	1467.9 ± 3.7	185.52 ± 8.7
w2 = 0.006761	982.74 ± 5.2	1468.9 ± 3.7	182.63 ± 8.4

CC(=O)[O-].CCCC[NH2+]CCO [N-(2-hydroxyethyl)butan-1-aminium acetate]
[1]
Conditions	mass density [kg/m3]	speed of sound [m/s]	viscosity [mPa·s]
293.15 K	1021.2 ± 2.7	1566.5 ± 3.7	548.2 ± 45
298.15 K	1017.8 ± 2.7	1546.5 ± 3.7	421.6 ± 31
303.15 K	1014.3 ± 2.7	1528.1 ± 3.7	295.4 ± 18
308.15 K	1010.8 ± 2.7	1510.8 ± 3.7	214.5 ± 11
313.15 K	1007.3 ± 2.7	1494 ± 3.7	158.4 ± 6.6
318.15 K	1003.8 ± 2.6	1477.6 ± 3.7	119 ± 4.2
323.15 K	1000.3 ± 2.6	1461.4 ± 3.7	89.4 ± 2.9
328.15 K	996.6 ± 2.6	1445.2 ± 3.7	68.6 ± 2.3
333.15 K	993 ± 2.6	1429.3 ± 3.7	54 ± 2.2
338.15 K	989.3 ± 2.6	1413.2 ± 3.7	42.9 ± 2.1
343.15 K	985.6 ± 2.6	1397.2 ± 3.7	34.5 ± 2.1
